ChEMBL document CHEMBL5252665, “The Identification of GPR52 Agonist HTL0041178, a Potential Therapy for Schizophrenia and Related Psychiatric Disorders” (ACS Med Chem Lett, 2023)

Assays:
[1] = Octanol-water partition coefficient, log D of the compound by chromatographic method; assay type: physicochemical
[2] = Oral bioavailability in Sprague-Dawley rat at 3 mg/kg by LC-MS/MS analysis; assay type: ADME, organism-based; conditions: in vivo
[3] = Cmax in Sprague-Dawley rat at 3 mg/kg,po by LC-MS/MS analysis; assay type: ADME, organism-based; design: dose 3 mg/kg, route po; conditions: in vivo
[4] = Oral absorption in Sprague-Dawley rat at 3 mg/kg by LC-MS/MS analysis; assay type: ADME, organism-based; conditions: in vivo
[5] = Clearance in Sprague-Dawley rat plasma at 1 mg/kg,iv by LC-MS/MS analysis; assay type: ADME, organism-based
[6] = Half life in Sprague-Dawley rat at 1 mg/kg,iv by LC-MS/MS analysis; assay type: ADME, organism-based; conditions: in vivo
[7] = AUC (0 to infinity) in Sprague-Dawley rat at 3 mg/kg,po by LC-MS/MS analysis; assay type: ADME, organism-based; design: dose 3 mg/kg, route po; conditions: in vivo
[8] = Volume of distribution at steady state in Sprague-Dawley rat at 1 mg/kg,iv by LC-MS/MS analysis; assay type: ADME, organism-based; conditions: in vivo, read-out: Vdss
[9] = AUC (0 to infinity) in Sprague-Dawley rat at 1 mg/kg,iv by LC-MS/MS analysis; assay type: ADME, organism-based; design: dose 1 mg/kg, route iv; conditions: in vivo
[10] = Metabolic stability in rat liver microsomes assessed as intrinsic clearance preincubation with compound followed by NADPH addition and measured after 45 mins by LC-MS/MS analysis; assay type: ADME, Microsome; conditions: read-out: CLH
[11] = Unbound brain-to-plasma concentration ratio in Sprague-Dawley rat plasma at 1 mg/kg,iv by LC-MS/MS analysis; assay type: ADME, organism-based; conditions: brain and plasma, read-out: K(p,uu,brain)
[12] = Apparent permeability of compound across apical to basolateral side in dog MDCK-MDR1 cells incubated for 1 hr by LC-MS/MS analysis; assay type: ADME, cell-based, Canis lupus familiaris
[13] = Metabolic stability in human liver microsomes assessed as intrinsic clearance preincubation with compound followed by NADPH addition and measured after 45 mins by LC-MS/MS analysis; assay type: ADME, Microsome; conditions: read-out: CLH
[14] = Lipophilicity, logP of the compound by shake flask assay; assay type: physicochemical; conditions: octanol/water
[15] = Terminal brain concentration in Sprague-Dawley rat model of amphetamine-induced hyperlocomotion activity at 10 mg/kg, po measured after 2 hrs by LC-MS/MS analysis; assay type: ADME, organism-based; conditions: read-out: Clast
[16] = Volume of distribution at steady state in cynomolgus monkey at 1 mg/kg,iv by LC-MS/MS analysis; assay type: ADME, organism-based, Macaca fascicularis; conditions: in vivo, read-out: Vdss
[17] = Terminal free brain concentration in Sprague-Dawley rat model of amphetamine-induced hyperlocomotion activity at 10 mg/kg, po measured after 2 hrs by LC-MS/MS analysis; assay type: ADME, organism-based; conditions: in vivo
[18] = Half life in cynomolgus monkey at 1 mg/kg,iv by LC-MS/MS analysis; assay type: ADME, organism-based, Macaca fascicularis; conditions: in vivo
[19] = Clearance in CD-1 mouse plasma at 1 mg/kg,iv by LC-MS/MS analysis; assay type: ADME, organism-based
[20] = Volume of distribution at steady state in CD-1 mouse at 1 mg/kg,iv by LC-MS/MS analysis; assay type: ADME, organism-based; conditions: in vivo, read-out: Vdss
[21] = AUC (0 to infinity) in cynomolgus monkey at 3 mg/kg,po by LC-MS/MS analysis; assay type: ADME, organism-based, Macaca fascicularis; design: dose 3 mg/kg, route po; conditions: in vivo
[22] = Cmax in cynomolgus monkey at 3 mg/kg,po by LC-MS/MS analysis; assay type: ADME, organism-based, Macaca fascicularis; design: dose 3 mg/kg, route po; conditions: in vivo
[23] = AUC (0 to infinity) in CD-1 mouse at 3 mg/kg,po by LC-MS/MS analysis; assay type: ADME, organism-based; design: dose 3 mg/kg, route po; conditions: in vivo
[24] = Oral absorption in CD-1 mouse at 3 mg/kg by LC-MS/MS analysis; assay type: ADME, organism-based; conditions: in vivo
[25] = Half life in CD-1 mouse at 1 mg/kg,iv by LC-MS/MS analysis; assay type: ADME, organism-based; conditions: in vivo
[26] = Clearance in cynomolgus monkey plasma at 1 mg/kg,iv by LC-MS/MS analysis; assay type: ADME, organism-based, Macaca fascicularis
[27] = Oral bioavailability in CD-1 mouse at 3 mg/kg by LC-MS/MS analysis; assay type: ADME, organism-based; conditions: in vivo
[28] = Oral bioavailability in cynomolgus monkey at 3 mg/kg by LC-MS/MS analysis; assay type: ADME, organism-based, Macaca fascicularis; conditions: in vivo
[29] = AUC (0 to infinity) in cynomolgus monkey at 1 mg/kg,iv by LC-MS/MS analysis; assay type: ADME, organism-based, Macaca fascicularis; design: dose 1 mg/kg, route iv; conditions: in vivo
[30] = Cmax in CD-1 mouse at 3 mg/kg,po by LC-MS/MS analysis; assay type: ADME, organism-based; design: dose 3 mg/kg, route po; conditions: in vivo
[31] = Oral absorption in cynomolgus monkey at 3 mg/kg by LC-MS/MS analysis; assay type: ADME, organism-based, Macaca fascicularis; conditions: in vivo, read-out: Drug absorption
[32] = AUC (0 to infinity) in CD-1 mouse at 1 mg/kg,iv by LC-MS/MS analysis; assay type: ADME, organism-based; design: dose 1 mg/kg, route iv; conditions: in vivo

## O=C1NCCc2c1nnn2-c1ccnc(Cc2cc(F)cc(C(F)(F)F)c2)c1
[1]
  chromatographic logD: 4

## O=C1NCCc2c1cnn2-c1cc(Cc2cccc(C(F)(F)F)c2)ccn1
[2]
  bioavailability: 54%
[3]
  Cmax: 143 ng/mL
[4]
  Fa: > 100%
[5]
  clearance: 39 mL/min/kg
[6]
  half-life: 0.6 h
[7]
  AUC(0-inf): 709 ng·h/mL
[1]
  chromatographic logD: 4.9
[8]
  Vd: 1.5 L/kg
[9]
  AUC(0-inf): 440 ng·h/mL
[10]
  microsomal CLint: 46 µL/min/mg
[11]
  Kp uu: 0.4
[12]
  Papp A→B at 1 h: 46 ×10⁻⁶ cm/s
[13]
  microsomal CLint: < 10 µL/min/mg

## O=C1NCc2c1cnn2-c1ccnc(Cc2cc(F)cc(C(F)(F)F)c2)c1
[1]
  chromatographic logD: 4

## O=C1NCCCc2c1cnn2-c1ccnc(Cc2cc(F)cc(C(F)(F)F)c2)c1
[1]
  chromatographic logD: 4.2
[10]
  microsomal CLint: 102 µL/min/mg
[13]
  microsomal CLint: 21 µL/min/mg

## CN1CCc2c(cnn2-c2cc(Cc3cc(F)cc(C(F)(F)F)c3)ccn2)C1=O
[1]
  chromatographic logD: 5.8
[10]
  microsomal CLint: 33 µL/min/mg
[12]
  Papp A→B at 1 h: 30 ×10⁻⁶ cm/s
[13]
  microsomal CLint: 62 µL/min/mg

## Cc1nn(-c2ccnc(Cc3cc(F)cc(C(F)F)c3)c2)c2c1C(=O)NCC2
[1]
  chromatographic logD: 3.6
[10]
  microsomal CLint: 71 µL/min/mg
[12]
  Papp A→B at 1 h: 28 ×10⁻⁶ cm/s
[13]
  microsomal CLint: 32 µL/min/mg

## O=C1NCCc2c1cnn2-c1ccnc(Cc2cc(F)c(Cl)c(C(F)(F)F)c2)c1
[1]
  chromatographic logD: 4.6
[10]
  microsomal CLint: 57 µL/min/mg
[13]
  microsomal CLint: 24 µL/min/mg

## Cc1nn(-c2ccnc(Cc3cc(F)cc(C(F)(F)F)c3)c2)c2c1C(=O)NCC2
[1]
  chromatographic logD: 4.4
[10]
  microsomal CLint: 40 µL/min/mg
[12]
  Papp A→B at 1 h: 46 ×10⁻⁶ cm/s
[13]
  microsomal CLint: 31 µL/min/mg

## O=C1NCCc2c1cnn2-c1cncc(Cc2cc(F)cc(C(F)(F)F)c2)c1
[1]
  chromatographic logD: 3.8
[10]
  microsomal CLint: 25 µL/min/mg
[12]
  Papp A→B at 1 h: 38 ×10⁻⁶ cm/s
[14]
  logP: 4
[13]
  microsomal CLint: < 10 µL/min/mg

## Cc1nn(-c2cncc(Cc3cc(F)cc(C(F)(F)F)c3)c2)c2c1C(=O)NCC2
[1]
  chromatographic logD: 4.1
[10]
  microsomal CLint: 63 µL/min/mg
[12]
  Papp A→B at 1 h: 48 ×10⁻⁶ cm/s
[13]
  microsomal CLint: 27 µL/min/mg

## O=C1NCCc2c1cnn2-c1ccnc(Cc2cc(F)cc(C(F)(F)F)c2)c1
[15]
  concentration at 2 h: 1560 nM
[2]
  bioavailability: 40%
[16]
  Vd: 1.4 L/kg
[3]
  Cmax: 285 ng/mL
[17]
  Drug uptake(free): 41.2 nM
[4]
  Fa: 52%
[5]
  clearance: 16 mL/min/kg
[18]
  half-life: 8 h
[19]
  clearance: 6 mL/min/kg
[6]
  half-life: 0.8 h
[20]
  Vd: 1.5 L/kg
[21]
  AUC: 6327 ng·h/mL
[7]
  AUC(0-inf): 1260 ng·h/mL
[22]
  Cmax: 581 ng/mL
[1]
  chromatographic logD: 3.9
[23]
  AUC(0-inf): 5910 ng·h/mL
[24]
  Fa: 80%
[8]
  Vd: 1 L/kg
[9]
  AUC(0-inf): 1020 ng·h/mL
[25]
  half-life: 3.4 h
[26]
  clearance: 2 mL/min/kg
[10]
  microsomal CLint: 25 µL/min/mg
[27]
  bioavailability: 95%
[11]
  Kp uu: 0.35
[28]
  F: 81%
[12]
  Papp A→B at 1 h: 48 ×10⁻⁶ cm/s
[29]
  AUC: 7854 ng·h/mL
[30]
  Cmax: 486 ng/mL
[31]
  Fa: 85%
[32]
  AUC(0-inf): 2610 ng·h/mL
[14]
  logP: 4.2
[13]
  microsomal CLint: 11 µL/min/mg

## O=C1CCCc2c1cnn2-c1cc(Cc2cccc(C(F)(F)F)c2)ccn1
[1]
  chromatographic logD: 6.7
[10]
  microsomal CLint: 120 µL/min/mg
[12]
  Papp A→B at 1 h: 25 ×10⁻⁶ cm/s
[13]
  microsomal CLint: 50 µL/min/mg

## O=C1NCCc2c1cnn2-c1cc(Cc2cc(F)cc(C(F)(F)F)c2)ccn1
[1]
  chromatographic logD: 5.1
[10]
  microsomal CLint: 30 µL/min/mg
[12]
  Papp A→B at 1 h: 32 ×10⁻⁶ cm/s
[14]
  logP: 3.1
[13]
  microsomal CLint: 15 µL/min/mg

## Cc1nn(-c2ccnc(Cc3cc(F)cc(OC(F)F)c3)c2)c2c1C(=O)NCC2
[1]
  chromatographic logD: 3.9
[10]
  microsomal CLint: 63 µL/min/mg
[12]
  Papp A→B at 1 h: 32 ×10⁻⁶ cm/s
[13]
  microsomal CLint: 34 µL/min/mg

## O=C1NCCc2c1cnn2-c1ccnc(Cc2cc(F)cc(C(F)F)c2)c1
[1]
  chromatographic logD: 3.3
[10]
  microsomal CLint: 37 µL/min/mg
[12]
  Papp A→B at 1 h: 30 ×10⁻⁶ cm/s
[13]
  microsomal CLint: 15 µL/min/mg

## O=C1NCCc2c1cnn2-c1cccc(Cc2cc(F)cc(C(F)(F)F)c2)c1
[1]
  chromatographic logD: 5
[10]
  microsomal CLint: 48 µL/min/mg
[13]
  microsomal CLint: < 10 µL/min/mg

## O=C1NCCc2nn(-c3ccnc(Cc4cc(F)cc(C(F)(F)F)c4)c3)cc21
[1]
  chromatographic logD: 4.4
